“Also recorded” adds a separate entry of the source.
Legend:
S. aureus = experiment: Antibacterial activity (bacterial growth inhibition); format: cell-based, Staphylococcus aureus; conditions: at 100 μg/mL; for inhibition at 100 µg/mL: Staphylococcus aureus, read-out: Antibacterial Activity (% Inhibition ± SEM)
[1] = system: biofilm of S. aureus ATCC 6538; experiment: 96-well plate crystal violet assay for biofilm inhibition; format: cell-based, Staphylococcus aureus; conditions: at 100 μg/mL, biofilm of S. aureus, 24 hours; for inhibition at 100 µg/mL: Staphylococcus aureus, ATCC6538, read-out: Antibiofilm Activity (% Inhibition ± SEM)
Description: The quantitative determination of biofilm inhibition was carried out by the crystal violet assay on a sterile 96-well plate with slight modifications. The glycerol stock of S. aureus was revived overnight at 37°C at 80 rpm. The overnight culture was then diluted 100 folds in fresh BHI broth, supplemented with 0.25% glucose. The cell density was adjusted to 1×10^7 and 195μL of the cell suspension was added in 96-well plate. […] Following that, the plate was washed with sterile distilled water in order to decant the non-adherent cells, and media. The plate was then dried at 60°C for 1 hour, and 200 μL of 0.1% (w/v) crystal violet was added to stain biofilm for 20 minutes. The plate was washed again, air dried, and dispensed 30% (v/v) acetic acid in each well to dissolve the biofilm. The inhibition of biofilm formation was analyzed by measuring the absorbance at 595 nm using the microplate reader (Multiskan Sky, Thermo Scientific, USA). The percent inhibition of biofilm formation was calculated via the following formula: 100−ƛTreated−ƛBlank/ƛControl−ƛBlank×100 Whereƛ=absorbance

| Structure (SMILES) | Antibacterial Activity (% Inhibition ± SEM) (S. aureus) | Antibiofilm Activity (% Inhibition ± SEM) [1] | inhibition at 100 µg/mL (S. aureus) | inhibition at 100 µg/mL [1] |
| --- | --- | --- | --- | --- |
| Cc1ccc2oc(=O)c(/C=N/NC(N)=S)c(Cl)c2c1 [Compound 1, (E)-2-((4-Chloro-6-methyl-2-oxo-2H-chromen-3-yl)methylene)hydrazinecarbothioamide] | inactive | inactive |  |  |
| Cc1ccc2oc(=O)c(/C=N/Nc3nc(-c4ccc(Cl)cc4Cl)cs3)c(Cl)c2c1 [Compound 5, (E)-4-Chloro-3-((2-(4-(2,4-dichlorophenyl)thiazol-2-yl)hydrazono)methyl)-6-methyl-2H-chromen-2-one] |  | No Inhibition | 36 ± 8.77% |  |
| Cc1ccc2oc(=O)c(/C=N/Nc3nc(-c4ccc(Br)cc4)cs3)c(Cl)c2c1 [Compound 6, (E)-3-((2-(4-(4-Bromophenyl)thiazol-2-yl)hydrazono)methyl)-4-chloro-6-methyl-2H-chromen-2-one] |  | induced biofilm inhibition; also recorded: dual anti-bacterial and anti-biofilm effect | 72 ± 7.22% | 61 ± 4.05% |
| Cc1ccc2oc(=O)c(/C=N/Nc3nc(-c4ccc(Cl)cc4)cs3)c(Cl)c2c1 [Compound 7, (E)-4-Chloro-3-((2-(4-(4-chlorophenyl)thiazol-2-yl)hydrazono)methyl)-6-methyl-2H-chromen-2-one] |  | No Inhibition | 41 ± 11.1% |  |
| COc1ccc(-c2csc(N/N=C/c3c(Cl)c4cc(C)ccc4oc3=O)n2)cc1 [Compound 8, (E)-4-Chloro-3-((2-(4-(4-methoxyphenyl)thiazol-2-yl)hydrazono)methyl)-6-methyl-2H-chromen-2-one] |  | induced biofilm inhibition; also recorded: dual anti-bacterial and anti-biofilm effect | 52 ± 5.08% | 66 ± 5.11% |
| C/C(=N\NC(N)=S)c1cc2ccccc2oc1=O [Compound 9, (E)-2-(1-(2-Oxo-2H-chromen-3-yl)ethylidene)hydrazinecarbothioamide] |  | No Inhibition | 55 ± 5.43% | 22% |
| C/C(=N\Nc1nc(-c2ccc(Cl)cc2)cs1)c1cc2ccccc2oc1=O [Compound 11, (E)-3-(1-(2-(4-(4-Chlorophenyl)thiazol-2-yl)hydrazono)ethyl)-2H-chromen-2-one] |  | induced biofilm inhibition; also recorded: dual anti-bacterial and anti-biofilm effect | 88 ± 4.32% | 70 ± 7.09% |
| C/C(=N\Nc1nc(-c2ccc(Cl)c(Cl)c2)cs1)c1cc2ccccc2oc1=O [Compound 12, (E)-3-(1-(2-(4-(3,4-Dichlorophenyl)thiazol-2-yl)hydrazono)ethyl)-2H-chromen-2-one] |  | No Inhibition |  |  |
| C/C(=N\Nc1nc(-c2cccc([N+](=O)[O-])c2)cs1)c1cc2ccccc2oc1=O [Compound 13, (E)-3-(1-(2-(4-(3-Nitrophenyl)thiazol-2-yl) hydrazono)ethyl)-2H-chromen-2-one] | No Inhibition | No Inhibition |  |  |
| C/C(=N\Nc1nc(-c2ccc(C#N)cc2)cs1)c1cc2ccccc2oc1=O [Compound 14, (E)-4-(2-(2-(1-(2-Oxo-2H-chromen-3-yl)ethylidene)hydrazinyl)thiazol-4-yl)benzonitrile] |  | induced biofilm inhibition; also recorded: dual anti-bacterial and anti-biofilm effect | 61 ± 9.33% | 68 ± 6.63% |
| C/C(=N\Nc1nc(-c2ccccc2O)cs1)c1cc2ccccc2oc1=O [Compound 15, (E)-3-(1-(2-(4-(2-Hydroxyphenyl)thiazol-2-yl)hydrazono)ethyl)-2H-chromen-2-one] |  | induced biofilm inhibition | 73 ± 7.16% | 34 ± 5.11% |
| O=c1oc2ccccc2cc1-c1csc(N/N=C/c2ccccc2)n1 [Compound 16, (E)-3-(2-(2-Benzylidenehydrazinyl)thiazol-4-yl)-2H-chromen-2-one] |  | No inhibition |  |  |
| O=c1oc2ccccc2cc1-c1csc(N/N=C/c2cccc(Cl)c2)n1 [Compound 18, (E)-3-(2-(2-(3-Chlorobenzylidene)hydrazinyl)thiazol-4-yl)-2H-chromen-2-one] |  |  | 32 ± 8.97% | 25 ± 5.26% |
| O=c1oc2ccccc2cc1-c1csc(N/N=C/c2ccc(Cl)cc2)n1 [Compound 19, (E)-3-(2-(2-(4-Chlorobenzylidene)hydrazinyl)thiazol-4-yl)-2H-chromen-2-one] | No Inhibition |  |  | 37 ± 6.98% |
| O=c1oc2ccccc2cc1-c1csc(N/N=C/c2ccc(Cl)cc2Cl)n1 [Compound 20, (E)-3-(2-(2-(2,4-Dichlorobenzylidene)hydrazinyl)thiazol-4-yl)-2H-chromen-2-one] |  | No Inhibition |  |  |
| O=c1oc2ccccc2cc1-c1csc(N/N=C/c2ccccc2[N+](=O)[O-])n1 [Compound 21, (E)-3-(2-(2-(2-Nitrobenzylidene)hydrazinyl)thiazol-4-yl)-2H-chromen-2-one] |  | No Inhibition |  |  |

Reference: article PMC11412489, “Coumarin derivatives as new anti-biofilm agents against Staphylococcus aureus” (PLOS ONE, 2024)
